According to publication PMC2614900 (Journal of the American Chemical Society, 2008):

Columns and labels:
HIV-1 = assay: Inhibition of HIV-1 replication in MT-2 lymphocytes; conditions: for TI, therapeutic index (CC50/IC50): MT-2 CC50 / HIV-1 IC50
IL-12 = conditions: at 10 μg mL^-1; cited from earlier work
[1] = system: noninfected H9 lymphocytes; conditions: cited from earlier work
IL-10 = conditions: at 10 μg mL^-1; cited from earlier work
[2] = Cytotoxicity against non-infected MT-2 lymphocytes; conditions: human
HIV = conditions: cited from earlier work
[3] = system: tumor necrosis factor-α (TNFα); conditions: at 10 μg mL^-1; cited from earlier work

C=C[C@@]1(C)COC(=O)[C@]12OC(c1ccccc1)=CC2=O [compound 18, hyperolactone C]
CC50 (MT-2 lymphocytes): 925 µM
TI, therapeutic index (CC50/IC50) (HIV-1): 32.0

Cc1cn([C@H]2C[C@H](N=[N+]=[N-])[C@@H](CO)O2)c(=O)[nH]c1=O [AZT, reference compound]
CC50 (MT-2 lymphocytes): > 50 µM
TI, therapeutic index (CC50/IC50) (HIV-1): >641

4-epi-hyperolactone C [compound 16]
CC50 (MT-2 lymphocytes): 462 µM

C=C[C@@]1(C)COC(=O)[C@]12O[C@]1(c3ccccc3)[C@H](C2=O)[C@H]2[C@H]([C@H](C)CCC=C(C)C)CC=C(C)[C@H]21 [2b, biyouyanagin A]
LPS-induced cytokine production, IL-12 (IL-12): 0.02
EC50, noninfected H9 lymphocytes [1]: > 25 µg/mL
IC50 (HIV-1; Human immunodeficiency virus 1, Lymphocyte, read-out: HIV-1 IC50): 26 µM
TI, therapeutic index (CC50/IC50) (HIV-1): 7.5
LPS-induced cytokine production, IL-10 (IL-10): 0.03
CC50 [2]: 198 µM
EC50, inhibition of HIV replication in H9 lymphocytes (HIV): 0.798 µg/mL
LPS-induced cytokine production, TNFα [3]: 0.48

24-epi-biyouyanagin A [2a]
CC50 (MT-2 lymphocytes): 285 µM
